pIC50: −log10 of the molar value.
target: T1, Human PI3Kα (Homo sapiens, UniProt P42336); assay: PI3Kα enzyme inhibitory activity (Kinase-Glo Plus luminescence); type: biochemical; conditions: Human PI3Kα 12 ng/well, phosphatidylinositol 0.2 μg/well, 37° C. for 3 hours
T1 construct: purchased Millipore Corporation 14-602
Protocol: 2. PI3Kα Enzyme Inhibitory Activity
Human PI3Kα (12 ng/well, Millipore Corporation, Catalogue No. 14-602), phosphatidylinositol (0.2 μg/well), and the test compound were mixed in a 384-well plate in a reaction buffer (50 mM Hepes, 10 mM NaCl, 10 mM MgCl2, 2 mM EGTA, 2 mM DTT, pH 7.3) (total 10 μl), and incubated at 37° C. for 3 hours. After the reaction, 10 μL of a Kinase-Glo Plus reagent (Promega, Catalogue No. V3772) was added thereto, and a luminescence was measured with a luminometer. The IC50 value of the compound was calculated, taking the inhibition rate without addition of the enzyme as 100% and the inhibition rate without addition of the test compound as 0%, by a logistic method.
(§1) In the Table, Ex represents Example Compound No. as described later, PI3Kδ represents the IC50 value (nM) of a PI3Kδ enzyme inhibitory activity, and PI3Kα represents the IC50 value (nM) of a PI3Kα enzyme inhibitory activity.

T1 sequence (P42336 whole entry): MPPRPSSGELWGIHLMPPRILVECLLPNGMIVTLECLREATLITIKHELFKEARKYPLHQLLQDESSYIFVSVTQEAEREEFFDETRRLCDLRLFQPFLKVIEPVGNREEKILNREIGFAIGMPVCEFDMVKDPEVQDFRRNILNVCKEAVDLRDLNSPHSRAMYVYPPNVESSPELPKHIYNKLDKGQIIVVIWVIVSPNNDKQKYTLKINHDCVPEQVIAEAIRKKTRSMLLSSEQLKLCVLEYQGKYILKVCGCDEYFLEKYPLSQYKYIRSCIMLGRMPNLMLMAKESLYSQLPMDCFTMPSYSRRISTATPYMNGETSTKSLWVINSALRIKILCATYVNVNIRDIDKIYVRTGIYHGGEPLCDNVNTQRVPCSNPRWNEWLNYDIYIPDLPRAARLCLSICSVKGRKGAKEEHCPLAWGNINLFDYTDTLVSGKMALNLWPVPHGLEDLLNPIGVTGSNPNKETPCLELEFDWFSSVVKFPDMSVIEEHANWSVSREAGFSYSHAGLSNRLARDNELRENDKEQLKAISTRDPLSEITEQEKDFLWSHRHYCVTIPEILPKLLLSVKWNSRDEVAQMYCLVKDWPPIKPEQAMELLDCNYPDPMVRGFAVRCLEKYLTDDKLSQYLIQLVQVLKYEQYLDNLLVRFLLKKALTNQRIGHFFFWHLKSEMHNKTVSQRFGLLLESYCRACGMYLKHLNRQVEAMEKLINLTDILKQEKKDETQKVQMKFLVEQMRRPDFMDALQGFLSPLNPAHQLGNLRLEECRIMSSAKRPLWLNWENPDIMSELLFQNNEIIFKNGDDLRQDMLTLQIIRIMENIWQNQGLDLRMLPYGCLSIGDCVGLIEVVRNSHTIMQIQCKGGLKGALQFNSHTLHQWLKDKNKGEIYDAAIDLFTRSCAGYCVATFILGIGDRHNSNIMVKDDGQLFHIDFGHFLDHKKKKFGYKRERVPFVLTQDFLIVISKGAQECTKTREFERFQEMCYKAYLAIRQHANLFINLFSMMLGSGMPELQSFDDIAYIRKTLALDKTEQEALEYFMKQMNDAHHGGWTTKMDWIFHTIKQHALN
T1 sequence (P27986 whole entry partner): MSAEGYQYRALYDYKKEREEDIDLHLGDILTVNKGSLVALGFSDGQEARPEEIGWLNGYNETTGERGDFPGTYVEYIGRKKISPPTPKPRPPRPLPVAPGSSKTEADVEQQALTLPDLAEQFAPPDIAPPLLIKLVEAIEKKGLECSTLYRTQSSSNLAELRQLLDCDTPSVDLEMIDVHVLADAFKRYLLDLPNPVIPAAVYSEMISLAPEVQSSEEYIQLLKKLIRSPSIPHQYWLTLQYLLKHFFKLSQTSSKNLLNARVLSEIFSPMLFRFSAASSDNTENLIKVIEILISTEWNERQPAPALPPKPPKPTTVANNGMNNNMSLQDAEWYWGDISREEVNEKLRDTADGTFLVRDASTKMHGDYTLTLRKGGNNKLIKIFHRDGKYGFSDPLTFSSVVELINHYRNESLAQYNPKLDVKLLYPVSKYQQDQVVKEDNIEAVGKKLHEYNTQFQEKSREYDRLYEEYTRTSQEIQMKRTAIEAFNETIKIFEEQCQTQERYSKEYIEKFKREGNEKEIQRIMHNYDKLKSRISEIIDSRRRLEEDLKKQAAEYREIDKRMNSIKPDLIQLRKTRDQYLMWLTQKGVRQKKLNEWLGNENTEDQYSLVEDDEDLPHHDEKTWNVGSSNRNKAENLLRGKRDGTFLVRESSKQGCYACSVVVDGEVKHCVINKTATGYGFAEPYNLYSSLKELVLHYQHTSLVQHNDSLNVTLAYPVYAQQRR

Compound	pIC50
FC[C@H]1CCCN1[C@H]1CC[C@H](CNc2cc(-n3c(C(F)F)nc4ccccc43)nc(N3CCOCC3)n2)CC1 [Example 511]	5.70
COCC(C)N[C@H]1CC[C@H](CNc2nc(N3CCOCC3)cc(-n3c(C(F)F)nc4ccccc43)n2)CC1 (stereo partly shown) [Example 399]	5.49
FC(F)c1nc2ccccc2n1-c1cc(NC[C@H]2CC[C@H](N3CC[C@H](F)C3)CC2)nc(N2CCOCC2)n1 [Example 461]	5.42
CC(N(C)[C@H]1CC[C@H](CNc2nc(N3CCOC[C@@H]3C)cc(-n3c(C(F)F)nc4ccccc43)n2)CC1)C(C)(C)O (stereo partly shown) [Example 505]	6.35
FC[C@H]1CCCN1[C@H]1CC[C@@H](CNc2cc(-n3c(C(F)F)nc4ccccc43)nc(N3CCOCC3)n2)CC1 [Example 510]	< 5.00
FC(F)c1nc2ccccc2n1-c1cc(N2CCOCC2)nc(NC[C@H]2CC[C@H](N3CCOCC3)CC2)n1 [Example 174]	5.62
CC(C)(O)CN(CC1CCC1)[C@H]1CC[C@H](CNc2nc(N3CCOCC3)cc(-n3c(C(F)F)nc4ccccc43)n2)CC1 [Example 441]	5.23
CC(C)C(O)CN(C)[C@H]1CC[C@H](CNc2nc(N3CCOCC3)cc(-n3c(C(F)F)nc4ccccc43)n2)CC1 (stereo partly shown) [Example 398]	5.47
CC(N(C)[C@H]1CC[C@H](CNc2nc(N3CCOCC3)cc(-n3c(C(F)F)nc4ccccc43)n2)CC1)C(C)(C)O (stereo partly shown) [Example 445]	5.47
COCCCN(C)[C@H]1CC[C@H](CNc2nc(N3CCOCC3)cc(-n3c(C(F)F)nc4ccccc43)n2)CC1 [Example 280]	5.60
C[C@@H]1COCCN1[C@H]1CC[C@H](CNc2cc(-n3c(C(F)F)nc4ccccc43)nc(N3CCOCC3)n2)CC1 [Example 546]	5.26
CC(C)(O)[C@@H]1CCCN1C1CCC(CNc2nc(N3CCOCC3)cc(-n3c(C(F)F)nc4ccccc43)n2)CC1 (stereo partly shown) [Example 490]	5.80
CCCN(CCC)[C@H]1CC[C@H](CNc2nc(N3CCOCC3)cc(-n3c(C(F)F)nc4ccccc43)n2)CC1 [Example 450]	5.46
FC[C@@H]1CCCN1[C@H]1CC[C@H](CNc2nc(N3CCOCC3)cc(-n3c(C(F)F)nc4ccccc43)n2)CC1 [Example 515]	5.92
C#CCN(CC(C)(C)O)[C@H]1CC[C@H](CNc2nc(N3CCOCC3)cc(-n3c(C(F)F)nc4ccccc43)n2)CC1 [Example 430]	5.64
CC(C)(O)[C@@H]1CCCN1C1CCC(CNc2cc(-n3c(C(F)F)nc4ccccc43)nc(N3CCOCC3)n2)CC1 (stereo partly shown) [Example 487]	5.36
FC(F)c1nc2ccccc2n1-c1cc(NC[C@H]2CC[C@H](N3CCOCC3)CC2)nc(N2CCOCC2)n1 [Example 223]	< 5.00

target: T2, human PI3Kδ enzyme (Homo sapiens, UniProt O00329); assay: PI3Kδ enzyme inhibitory activity (PI3-Kinase HTRF Assay kit); type: biochemical; conditions: human PI3Kδ 10 ng/well, ATP 30 μM, PIP2 10 μM, room temperature 30 minutes
T2 construct: purchased Millipore Corporation 14-604
T2 sequence (O00329 whole entry): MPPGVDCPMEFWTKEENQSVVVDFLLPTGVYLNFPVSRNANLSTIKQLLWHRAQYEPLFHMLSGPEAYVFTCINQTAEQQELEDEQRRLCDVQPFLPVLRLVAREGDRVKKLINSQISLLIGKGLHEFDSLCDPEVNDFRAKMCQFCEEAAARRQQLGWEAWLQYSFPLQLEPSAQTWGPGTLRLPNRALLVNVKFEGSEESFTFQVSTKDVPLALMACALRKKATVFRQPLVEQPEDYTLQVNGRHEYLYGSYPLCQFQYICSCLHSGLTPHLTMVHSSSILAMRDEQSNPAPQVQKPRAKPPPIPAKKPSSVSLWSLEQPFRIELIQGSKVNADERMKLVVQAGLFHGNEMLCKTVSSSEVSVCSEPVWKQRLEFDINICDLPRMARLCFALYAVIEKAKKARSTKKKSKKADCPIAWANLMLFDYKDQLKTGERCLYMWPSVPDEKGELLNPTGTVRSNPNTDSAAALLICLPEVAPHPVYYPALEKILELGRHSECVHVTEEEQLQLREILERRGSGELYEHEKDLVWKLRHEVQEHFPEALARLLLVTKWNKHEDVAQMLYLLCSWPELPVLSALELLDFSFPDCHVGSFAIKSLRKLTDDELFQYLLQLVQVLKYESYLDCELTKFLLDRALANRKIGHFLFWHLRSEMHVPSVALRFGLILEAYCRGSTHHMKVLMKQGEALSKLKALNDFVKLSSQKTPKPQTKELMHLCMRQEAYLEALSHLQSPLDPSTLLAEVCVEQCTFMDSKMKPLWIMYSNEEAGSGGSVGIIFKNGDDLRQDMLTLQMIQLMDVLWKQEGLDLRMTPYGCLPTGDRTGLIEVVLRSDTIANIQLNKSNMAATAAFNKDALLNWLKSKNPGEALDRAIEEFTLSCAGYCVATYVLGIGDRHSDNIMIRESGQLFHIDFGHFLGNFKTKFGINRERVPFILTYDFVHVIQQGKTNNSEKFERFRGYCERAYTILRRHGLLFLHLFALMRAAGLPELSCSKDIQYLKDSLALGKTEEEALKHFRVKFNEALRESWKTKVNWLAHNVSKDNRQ
T2 sequence (P27986 whole entry partner): as the sequence (P27986 whole entry partner) above
Protocol: 1. PI3Kδ Enzyme Inhibitory Activity
For the experiment, a PI3-Kinase HTRF Assay kit (Millipore Corporation, Catalogue No. 33-016) and a human PI3Kδ enzyme (Millipore Corporation, Catalogue No. 14-604) were used. The measurement method was in accordance with the appended instructions. The overview thereof is as follows.
PI3Kδ (10 ng/well), phosphatidylinositol-4,5-bisphosphate (10 μM), ATP (30 μM), and the test compound were mixed in a 384-well plate (total 20 μL), and incubated at room temperature for 30 minutes. EDTA and biotinylated phosphatidylinositol-3,4,5-triphosphate were added thereto to stop the reaction. Thereafter, a Europium labeled anti-GST antibody, a GST bond GRP1 PH domain, and streptavidin-APC were added thereto, followed by incubation overnight. An HTRF ratio was measured using an HTRF plate reader. The IC50 value of the compound was calculated, taking the inhibition rate without addition of the enzyme as 100% and the inhibition rate without addition of the test compound as 0%, by means of a logistic method.
as §1

Compound	pIC50
FC[C@H]1CCCN1[C@H]1CC[C@H](CNc2cc(-n3c(C(F)F)nc4ccccc43)nc(N3CCOCC3)n2)CC1 [Example 511]	8.33
COCC(C)N[C@H]1CC[C@H](CNc2nc(N3CCOCC3)cc(-n3c(C(F)F)nc4ccccc43)n2)CC1 (stereo partly shown) [Example 399]	7.66
COCCN(C)[C@H]1CC[C@H](CNc2cc(-n3c(C(F)F)nc4ccccc43)nc(N3CCOCC3)n2)CC1 [Example 497]	7.80
FC(F)c1nc2ccccc2n1-c1cc(NC[C@H]2CC[C@H](N3CC[C@H](F)C3)CC2)nc(N2CCOCC2)n1 [Example 461]	7.80
CC(N(C)[C@H]1CC[C@H](CNc2nc(N3CCOC[C@@H]3C)cc(-n3c(C(F)F)nc4ccccc43)n2)CC1)C(C)(C)O (stereo partly shown) [Example 505]	8.39
FC[C@H]1CCCN1[C@H]1CC[C@@H](CNc2cc(-n3c(C(F)F)nc4ccccc43)nc(N3CCOCC3)n2)CC1 [Example 510]	7.44
FC(F)c1nc2ccccc2n1-c1cc(N2CCOCC2)nc(NC[C@H]2CC[C@H](N3CCOCC3)CC2)n1 [Example 174]	8.23
CC(C)(O)CN(CC1CCC1)[C@H]1CC[C@H](CNc2nc(N3CCOCC3)cc(-n3c(C(F)F)nc4ccccc43)n2)CC1 [Example 441]	7.82
CC(C)C(O)CN(C)[C@H]1CC[C@H](CNc2nc(N3CCOCC3)cc(-n3c(C(F)F)nc4ccccc43)n2)CC1 (stereo partly shown) [Example 398]	7.49
CC(N(C)[C@H]1CC[C@H](CNc2nc(N3CCOCC3)cc(-n3c(C(F)F)nc4ccccc43)n2)CC1)C(C)(C)O (stereo partly shown) [Example 445]	8.15
COCCCN(C)[C@H]1CC[C@H](CNc2nc(N3CCOCC3)cc(-n3c(C(F)F)nc4ccccc43)n2)CC1 [Example 280]	8.31
C[C@@H]1COCCN1[C@H]1CC[C@H](CNc2cc(-n3c(C(F)F)nc4ccccc43)nc(N3CCOCC3)n2)CC1 [Example 546]	7.30
CC(C)(O)[C@@H]1CCCN1C1CCC(CNc2nc(N3CCOCC3)cc(-n3c(C(F)F)nc4ccccc43)n2)CC1 (stereo partly shown) [Example 490]	8.03
CCCN(CCC)[C@H]1CC[C@H](CNc2nc(N3CCOCC3)cc(-n3c(C(F)F)nc4ccccc43)n2)CC1 [Example 450]	7.85
FC[C@@H]1CCCN1[C@H]1CC[C@H](CNc2nc(N3CCOCC3)cc(-n3c(C(F)F)nc4ccccc43)n2)CC1 [Example 515]	8.22
C#CCN(CC(C)(C)O)[C@H]1CC[C@H](CNc2nc(N3CCOCC3)cc(-n3c(C(F)F)nc4ccccc43)n2)CC1 [Example 430]	8.64
CC(C)(O)[C@@H]1CCCN1C1CCC(CNc2cc(-n3c(C(F)F)nc4ccccc43)nc(N3CCOCC3)n2)CC1 (stereo partly shown) [Example 487]	8.10
FC(F)c1nc2ccccc2n1-c1cc(NC[C@H]2CC[C@H](N3CCOCC3)CC2)nc(N2CCOCC2)n1 [Example 223]	8.21
CCN(CC(C)(C)O)[C@H]1CC[C@H](CNc2nc(N3CCOCC3)cc(-n3c(C(F)F)nc4ccccc43)n2)CC1 [Example 385]	7.68

test system: Spleen cells (B cell proliferation); assay: Rat B cell proliferation inhibition test (anti-rat IgM, [3H]thymidine); type: cell-based; conditions: anti-rat IgM 3 μg/well, 48 hours culture, [3H]thymidine uptake
Protocol: 4. Rat B Cell Proliferation Inhibition Test
Spleen cells (1.0×10^5 cells/well) prepared from male LEW/CrlCrlj rats (Charles River Laboratories, Japan, Inc.), mouse F(ab′)2 fragment anti-rat IgM (3 μg/well, SouthernBiotech Associates, Inc., Catalogue No. 3082-14) and the test compound dissolved in DMSO (final DMSO concentration 0.1%) were mixed in a 96-well plate using a 10% FCS-containing RPMI-1640 culture medium (total 200 μL). They were cultured in a CO2 incubator for 48 hours and [^3H]thymidine (925 GBq/mmol, Moravek Biochemicals, Inc., Catalogue No. MT6038) was added thereto at 0.037 MBq/well at 4 hours before completion of culture. Cells were harvested in a GF/C glass filter using a cell harvester, and a radioactivity on the filter was measured using a liquid scintillation counter. The IC50 value of the compound was calculated, taking the dpm (disintegration per minute) without addition of IgM as an inhibition rate of 100% and the dpm without addition of the test compound as an inhibition rate of 0%, by a logistic method.

Compound	pIC50
FC[C@H]1CCCN1[C@H]1CC[C@H](CNc2cc(-n3c(C(F)F)nc4ccccc43)nc(N3CCOCC3)n2)CC1 [Example 511]	8.92
COCC(C)N[C@H]1CC[C@H](CNc2nc(N3CCOCC3)cc(-n3c(C(F)F)nc4ccccc43)n2)CC1 (stereo partly shown) [Example 399]	8.47
COCCN(C)[C@H]1CC[C@H](CNc2cc(-n3c(C(F)F)nc4ccccc43)nc(N3CCOCC3)n2)CC1 [Example 497]	8.68
FC(F)c1nc2ccccc2n1-c1cc(NC[C@H]2CC[C@H](N3CC[C@H](F)C3)CC2)nc(N2CCOCC2)n1 [Example 461]	8.96
CC(N(C)[C@H]1CC[C@H](CNc2nc(N3CCOC[C@@H]3C)cc(-n3c(C(F)F)nc4ccccc43)n2)CC1)C(C)(C)O (stereo partly shown) [Example 505]	9.34
FC[C@H]1CCCN1[C@H]1CC[C@@H](CNc2cc(-n3c(C(F)F)nc4ccccc43)nc(N3CCOCC3)n2)CC1 [Example 510]	7.74
FC(F)c1nc2ccccc2n1-c1cc(N2CCOCC2)nc(NC[C@H]2CC[C@H](N3CCOCC3)CC2)n1 [Example 174]	8.62
CC(C)(O)CN(CC1CCC1)[C@H]1CC[C@H](CNc2nc(N3CCOCC3)cc(-n3c(C(F)F)nc4ccccc43)n2)CC1 [Example 441]	8.38
CC(C)C(O)CN(C)[C@H]1CC[C@H](CNc2nc(N3CCOCC3)cc(-n3c(C(F)F)nc4ccccc43)n2)CC1 (stereo partly shown) [Example 398]	8.64
CC(N(C)[C@H]1CC[C@H](CNc2nc(N3CCOCC3)cc(-n3c(C(F)F)nc4ccccc43)n2)CC1)C(C)(C)O (stereo partly shown) [Example 445]	9.14
COCCCN(C)[C@H]1CC[C@H](CNc2nc(N3CCOCC3)cc(-n3c(C(F)F)nc4ccccc43)n2)CC1 [Example 280]	8.42
C[C@@H]1COCCN1[C@H]1CC[C@H](CNc2cc(-n3c(C(F)F)nc4ccccc43)nc(N3CCOCC3)n2)CC1 [Example 546]	8.66
CC(C)(O)[C@@H]1CCCN1C1CCC(CNc2nc(N3CCOCC3)cc(-n3c(C(F)F)nc4ccccc43)n2)CC1 (stereo partly shown) [Example 490]	9.12
CCCN(CCC)[C@H]1CC[C@H](CNc2nc(N3CCOCC3)cc(-n3c(C(F)F)nc4ccccc43)n2)CC1 [Example 450]	8.68
FC[C@@H]1CCCN1[C@H]1CC[C@H](CNc2nc(N3CCOCC3)cc(-n3c(C(F)F)nc4ccccc43)n2)CC1 [Example 515]	8.39
C#CCN(CC(C)(C)O)[C@H]1CC[C@H](CNc2nc(N3CCOCC3)cc(-n3c(C(F)F)nc4ccccc43)n2)CC1 [Example 430]	8.74
CC(C)(O)[C@@H]1CCCN1C1CCC(CNc2cc(-n3c(C(F)F)nc4ccccc43)nc(N3CCOCC3)n2)CC1 (stereo partly shown) [Example 487]	8.85
FC(F)c1nc2ccccc2n1-c1cc(NC[C@H]2CC[C@H](N3CCOCC3)CC2)nc(N2CCOCC2)n1 [Example 223]	8.82
CCN(CC(C)(C)O)[C@H]1CC[C@H](CNc2nc(N3CCOCC3)cc(-n3c(C(F)F)nc4ccccc43)n2)CC1 [Example 385]	8.72

— patent publication US20120165309A1, “HETERO RING DERIVATIVE” (Astellas Pharma Inc., priority 2009, published 2012)
